From patent US10030016B2 (Sunesis Pharmaceuticals, Inc., priority 2009, dated 2018)
Counter-ions that a name gives are not always drawn. Like-named read-outs stand apart in the source and are kept apart here.

Columns and labels:
[1] = target: PDK1 (Homo sapiens (Human), UniProt O15530); assay: PDK1 kinase assay (coupled PDK1/AKT/FAM-crosstide assay, IMAP fluorescence polarization); format: biochemical
Method in brief: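 Coupled cascade: 0.75 nM PDK1 (51-359) → 10 nM AKT2 (140-467-PIFtide) → 100 nM FAM-crosstide. ATP 40 μM, 25° C, 30 min. IMAP FP (ex 485/em 530), 2 h binding. ΔmP vs conc, 4-param fit.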

[2] = test system: phospho-akt (Thr308) in PC-3 cells; assay: Inhibition of phospho-akt (Thr308) in PC-3 cells, MSD phospho-akt 308 ELISA kit; format: cell-based; settings: Homo sapiens, 2 hours, no serum, read-out: EC50
Method in brief: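 Phospho-Akt (Thr308) levels were measured by MSD ELISA after PC-3 cells received compound for 2 hours in serum-free medium. Controls: DMSO (high), 5 μM wortmannin (low).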

[3] = inhibition of phospo-PDK1 in vitro
[4] = inhibition of P308 Akt in PC-3 cells, MSD
[5] = inhibition of P308 Akt in PC-3 cells using MSD
[6] = PC-3, 2 h, inhibition of P308 Akt in PC-3 cells using MSD
[7] = PC-3, 2 h, inhibition of P308 Akt in PC-3 cells, MSD

Sequence of PDK1 (O15530 51-359): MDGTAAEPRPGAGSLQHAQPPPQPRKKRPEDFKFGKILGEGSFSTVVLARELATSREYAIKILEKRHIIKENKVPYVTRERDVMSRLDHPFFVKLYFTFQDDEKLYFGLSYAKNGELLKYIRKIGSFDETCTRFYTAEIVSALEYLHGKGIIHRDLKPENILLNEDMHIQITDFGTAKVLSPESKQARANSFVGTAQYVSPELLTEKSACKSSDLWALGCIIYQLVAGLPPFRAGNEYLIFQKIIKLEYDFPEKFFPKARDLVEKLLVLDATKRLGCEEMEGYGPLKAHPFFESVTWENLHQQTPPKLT

Q: Which IC50 [1, 3] does the source give for `Nc1ncnc2ccc(-c3ccc(CNc4nccc5c4C(=O)N(Cc4ccc(F)c(F)c4)CC5)s3)cc12` [Ex. 7.18, 8-({[5-(4-aminoquinazolin-6-yl)thiophen-2-yl]methyl}amino)-2-(3,4-difluorobenzyl)-3,4-dihydro-2,7-naphthyridin-1(2H)-one] here?
A: The IC50 was < 100 nM.

Q: And the EC50 [2, 4]?
A: The EC50 was < 1000 nM.

Q: `Nc1n[nH]c2ncc(-c3ccc(CNc4ncc(C(F)(F)F)cc4C(=O)NCC4CC4)cc3)cc12` [Example 272, 2-(4-(3-amino-1H-pyrazolo [3,4-b]pyridin-5-yl)benzylamino)-N-(cyclopropylmethyl)-5-(trifluoromethyl) nicotinamide] was tested. Which IC50 ([1]; inhibition of PDK1 in vitro) did it give?
A: Its IC50 is 100 to 1000 nM.

Q: What about the EC50 [2, 5] of the same compound?
A: The EC50 was 1000 to 10000 nM.

Q: With `Nc1cnc(NCc2ccc(-c3ccc4ncnc(N)c4c3)s2)c(C(=O)NCc2ccc(F)c(F)c2)c1` [Ex. 8.4, 2-({[5-(4-aminoquinazolin-6-yl)thiophen-2-yl]methyl}amino)-N-(3,4-difluorobenzyl)-5-aminopyridine-3-carboxamide] as the compound, how does the IC50 [1, 3] read?
A: Its IC50 is < 100 nM.

Q: And the EC50 [2, 4]?
A: Its EC50 is 1000 to 10000 nM.

Q: `N#Cc1cnc(NCc2ccc(-c3cnc4[nH]nc(N)c4c3)cc2)c(C(=O)NCc2cncc(F)c2)c1` [Example 311, 2-(4-(3-amino-1H-pyrazolo [3,4-b]pyridin-5-yl)benzylamino)-5-cyano-N-((5-fluoropyridin-3-yl)-5-methyl)nicotinamide] was tested. Which IC50 ([1]; inhibition of PDK1 in vitro) did it give?
A: Its IC50 is < 100 nM.

Q: What about the EC50 [2, 5] of the same compound?
A: The EC50 was < 1000 nM.

Q: For `N#Cc1cnc2c(c1)c(NCc1ccc(F)c(F)c1)nn2Cc1ccc(-c2cnc(N)cn2)cc1` [Example 259, 1-(4-(5-aminopyrazin-2-yl)benzyl)-3-(3,4-difluorobenzylamino)-1H-pyrazolo[3,4-b]pyridine-5-carbonitrile], which IC50 ([1]; inhibition of PDK1 in vitro) is on record?
A: The IC50 was 100 to 1000 nM.

Q: And the EC50 [2, 5]?
A: The EC50 was > 10000 nM.

Q: With `O=C(NCc1ccc(F)c(F)c1)c1cccnc1Nc1cccc(-c2cccc3c2CNC3=O)c1` [Example 17.1, N-(3,4-difluorobenzyl)-2-(3-(1-oxoisoindolin-4-yl)phenylamino)-nicotinamide] as the compound, how does the IC50 [1, 3] read?
A: The IC50 was 100 to 1000 nM.

Q: And the EC50 [2, 4]?
A: Its EC50 is > 10000 nM.

Q: With `Nc1ncnc2c1c(-c1ccc(CNc3ncc(C(F)(F)F)cc3C(=O)Nc3ccc(F)cc3)cc1)cn2C1COC1` [Example 443, 2-(4-(4-amino-7-(oxetan-3-yl)-7H-pyrrolo[2,3-d]pyrimidin-5-yl)benzylamino)-N-(4-fluorophenyl)-5-(trifluoromethyl)nicotinamide] as the compound, how does the IC50 [1, 3] read?
A: The IC50 was < 100 nM.

Q: And the EC50 [2, 5]?
A: The EC50 was < 1000 nM.

Q: With `C[C@H](NC(=O)c1cc(C#N)cnc1NCc1ccc(-c2cnc(N)c(OCCN)n2)cc1)c1ccc(F)cc1` [Example 165, 2-{4-[5-Amino-6-(2-amino-ethoxy)-pyrazin-2-yl]-benzylamino}-5-cyano-N-[(S)-1-(4-fluoro-phenyl)-ethyl]-nicotinamide] as the compound, how does the IC50 ([1]; inhibition of PDK1 in vitro) read?
A: The IC50 was < 100 nM.

Q: What about the EC50 [2, 5] of the same compound?
A: The EC50 was < 1000 nM.

Q: With `CC(C)Oc1cc(CNc2ncccc2C(=O)N[C@@H](C)c2ccccc2)cc(-c2c[nH]c3ncc(C(=O)NC4CC4)cc23)c1` [Example 4.1.13, N-cyclopropyl-3-[3-{[(3-{[(1S)-1-phenylethyl]carbamoyl}pyridin-2-yl)amino]methyl}-5-(propan-2-yloxy)phenyl]-1H-pyrrolo[2,3-b] pyridine-5-carboxamide] as the compound, how does the IC50 [1, 3] read?
A: Its IC50 is < 100 nM.

Q: What about the EC50 [2, 4] of the same compound?
A: Its EC50 is 1000 to 10000 nM.

Q: Which IC50 [1, 3] does the source give for `CCN(CC)CCNC(=O)c1c(C)[nH]c(/C=C2\C(=O)Nc3cc(/C=C/CNc4ncccc4C(=O)NCc4ccc(F)c(F)c4)ccc32)c1C` [Example 15.17, 2-((E)-3-((Z)-3-((4-(2-(diethylamino)ethylcarbamoyl)-3,5-dimethyl-1H-pyrrol-2-yl)methylene)-2-oxoindolin-6-yl)allylamino)-N-(3,4-difluorobenzyl)nicotinamide] here?
A: Its IC50 is < 100 nM.

Q: And the EC50 [2, 4]?
A: The EC50 was 1000 to 10000 nM.

Q: `C[C@H](NC(=O)c1cccnc1Nc1ccc(-c2ccc3ncnc(N)c3c2)s1)c1ccc(F)c(F)c1` [Example 51, (S)-2-(5-(4-aminoquinazolin-6-yl)thiophen-2-ylamino)-N-(1-(3,4-difluorophenyl)ethyl)nicotinamide] was tested. Which IC50 ([1]; inhibition of PDK1 in vitro) did it give?
A: The IC50 was > 5000 nM.

Q: What about the EC50 [2, 5] of the same compound?
A: Its EC50 is > 10000 nM.

Q: `CS(=O)(=O)c1cnc(NCc2ccc(-c3ccc4ncnc(N)c4c3)s2)c(C(=O)NCc2ccc(F)c(F)c2)c1` [Example 8.7.8] was tested. Which IC50 [1, 3] did it give?
A: The IC50 was 100 to 1000 nM.

Q: And the EC50 [2, 4]?
A: The EC50 was < 1000 nM.

Q: With `C[C@H](NC(=O)c1cc(C#N)cnc1N[C@H](CC(=O)O)c1ccc(-c2c[nH]c3ncnc(N)c23)cc1)c1ccc(F)cc1` [Example 45, (R)-3-(4-(4-amino-7H-pyrrolo[2,3-d]pyrimidin-5-yl)phenyl)-3-(5-cyano-3-((S)-1-(4-fluorophenyl)ethylcarbamoyl)pyridin-2-ylamino)propanoic acid] as the compound, how does the IC50 ([1]; inhibition of PDK1 in vitro) read?
A: The IC50 was 100 to 1000 nM.

Q: What about the EC50 [2, 6] of the same compound?
A: The EC50 was > 10000 nM.

Q: `CC(C)c1ccc(NC(=O)c2cc(C(F)(F)F)cnc2NCc2ccc(-c3cnc4[nH]nc(N)c4c3)cc2)cc1` [Example 280, 2-(4-(3-amino-1H-pyrazolo [3,4-b]pyridin-5-yl)benzylamino)-N-(4-isopropylphenyl)-5-(trifluoromethyl)nicotinamide] was tested. Which IC50 ([1]; inhibition of PDK1 in vitro) did it give?
A: Its IC50 is 100 to 1000 nM.

Q: And the EC50 [2, 5]?
A: The EC50 was 1000 to 10000 nM.

Q: Which results are given for `C[C@H](NC(=O)c1nc(C#N)cnc1NCc1ccc(-c2cn(CCN)c3ncnc(N)c23)cc1)c1ccc(F)c(F)c1` [Example 319, (S)-3-(4-(4-amino-7-(2-aminoethyl)-7H-pyrrolo[2,3-d]pyrimidin-5-yl)benzylamino)-6-cyano-N-(1-(3,4-difluoro-phenyl)ethyl)pyrazine-2-carboxamide]?
A: IC50 ([1]; inhibition of PDK1 in vitro): < 100 nM; EC50 [2, 5]: < 1000 nM

Q: `C[C@H](NC(=O)c1nc(C#N)cnc1NCc1ccc(-c2cnc(N)c(O[C@@H]3CCC[C@H]3N)n2)cc1)c1ccc(F)c(F)c1` [Example 172, 3-{4-[5-Amino-6-((1R,2R)-2-amino-cyclopentyloxy)-pyrazin-2-yl]-benzylamino}-6-cyano-pyrazine-2-carboxylic acid [(S)-1-(3,4-difluoro-phenyl)-ethyl]-amide] was tested. Which IC50 ([1]; inhibition of PDK1 in vitro) did it give?
A: Its IC50 is < 100 nM.

Q: What about the EC50 [2, 5] of the same compound?
A: Its EC50 is 1000 to 10000 nM.

Q: Which IC50 ([1]; inhibition of PDK1 in vitro) does the source give for `O=C(NCc1ccc(F)c(F)c1)c1cc(C(F)(F)F)cnc1NCc1ccc(-c2cnc(NCCCO)cn2)cc1` [Example 231, N-(3,4-Difluoro-benzyl)-2-{4-[5-(3-hydroxy-propylamino)-pyrazin-2-yl]-benzylamino}-5-trifluoromethyl-nicotinamide] here?
A: The IC50 was 100 to 1000 nM.

Q: What about the EC50 [2, 6] of the same compound?
A: The EC50 was 1000 to 10000 nM.

Q: How did the IC50 [1, 3] turn out when `Nc1ncnc2ccc(-c3ccc(CNc4ncccc4C(=O)Nc4cc(F)cc(F)c4)s3)cc12` [Example 3.85, 2-({[5-(4-aminoquinazolin-6-yl)thiophen-2-yl]methyl}amino)-N-(3,5-difluorophenyl)-pyridine-3-carboxamide (TFA salt)] was run?
A: Its IC50 is 1000 to 5000 nM.

Q: And the EC50 [2, 7]?
A: The EC50 was > 10000 nM.

Q: Which results are given for `Nc1n[nH]c2ncc(-c3ccc(CNc4ncc(C(F)(F)F)cc4C(=O)Nc4ccc(F)cc4F)cc3)cc12` [Example 291, 2-(4-(3-amino-1H-pyrazolo [3,4-b]pyridin-5-yl)benzylamino)-N-(2,4-difluorophenyl)-5-(trifluoromethyl)nicotinamide]?
A: IC50 ([1]; inhibition of PDK1 in vitro): < 100 nM; EC50 [2, 5]: < 1000 nM

Q: How did the IC50 ([1]; inhibition of PDK1 in vitro) turn out when `C[C@H](NC(=O)c1nc(C#N)cnc1NCc1ccc(-c2cnc3[nH]nc(N(C)C)c3c2)cc1)c1ccc(F)c(F)c1` [Example 62, (S)-6-cyano-N-(1-(3,4-difluorophenyl)ethyl)-3-(4-(3-(dimethylamino)-1H-pyrazolo[3,4-b]pyridin-5-yl)benzylamino)pyrazine-2-carboxamide] was run?
A: Its IC50 is < 100 nM.

Q: And the EC50 [2, 5]?
A: The EC50 was < 1000 nM.

Q: `C[C@H](NC(=O)c1nc(C#N)cnc1NCc1ccc(-c2cnc(N)c(NCC(O)CO)n2)cc1)c1ccc(F)c(F)c1` (stereo partly drawn) [Example 244, 3-{4-[5-Amino-6-(2,3-dihydroxy-propylamino)-pyrazin-2-yl]-benzylamino}-6-cyano-pyrazine-2-carboxylic acid [(S)-1-(3,4-difluoro-phenyl)-ethyl]-amide] was tested. Which IC50 ([1]; inhibition of PDK1 in vitro) did it give?
A: Its IC50 is < 100 nM.

Q: And the EC50 [2, 5]?
A: Its EC50 is < 1000 nM.

Q: How did the IC50 ([1]; inhibition of PDK1 in vitro) turn out when `C[C@H](NC(=O)c1nc(C#N)cnc1NCc1ccc(-c2cnc3c(c2)c(N)nn3C)cc1)c1ccc(F)c(F)c1` [Example 414, (S)-3-(4-(3-amino-1-methyl-1H-pyrazolo[3,4-b]pyridin-5-yl)benzylamino)-6-cyano-N-(1-(3,4-difluorophenyl)ethyl) pyrazine-2-carboxamide] was run?
A: Its IC50 is 1000 to 5000 nM.

Q: What about the EC50 [2, 5] of the same compound?
A: The EC50 was 1000 to 10000 nM.

Q: Which results are given for `C[C@H](NC(=O)c1cccnc1NCc1ccc(-c2ccc3ncc4ncn(C)c4c3c2)s1)c1ccc(F)c(F)c1` [Example 2.25, (S)-N-(1-(3,4-difluorophenyl)ethyl)-2-(((5-(1-methyl-1H-imidazo[4,5-c]quinolin-8-yl)thiophen-2-yl)methyl)amino)nicotinamide]?
A: IC50 [1, 3]: < 100 nM; EC50 [2, 4]: < 1000 nM

Q: Which IC50 [1, 3] does the source give for `C[C@@H](c1ccc(F)c(F)c1)n1cnc2ccnc(NCc3ccc(-c4cc5c(N)ncnc5cn4)s3)c2c1=O` [Example 7.11, 5-({[5-(4-aminopyrido [3,4-d]pyrimidin-6-yl)thiophen-2-yl]methyl}amino)-3-[(1S)-1-(3,4-difluorophenyl)ethyl] pyrido[4,3-d]pyrimidin-4(3H)-one] here?
A: The IC50 was 100 to 1000 nM.

Q: What about the EC50 [2, 7] of the same compound?
A: Its EC50 is < 1000 nM.

Q: With `C[C@@H](NC(=O)c1cccnc1NCc1ccc(-c2ccc3ncnc(N)c3c2)s1)c1cccc(F)c1` [Example 3.20, 2-({[5-(4-aminoquinazolin-6-yl)thiophen-2-yl]methyl}amino)-N-[(1R)-1-(3-fluorophenyl)ethyl] pyridine-3-carboxamide (TFA salt)] as the compound, how does the IC50 [1, 3] read?
A: Its IC50 is > 5000 nM.

Q: And the EC50 [2, 4]?
A: Its EC50 is > 10000 nM.
